Assay results reported in ChEMBL document CHEMBL5579878, “Allosteric Activation of Protein Phosphatase 5 with Small Molecules” (J Med Chem, 2024).
Activity calls are given as the source filed them. The calls are words filed in the database; no cut-off is given here.

What was measured:
HCT-116 [1] = experiment: Downregulation of AT13387-induced HSP40 expression in PP5 Knockout human HCT-116 cells at 50 uM incubated for 24 hrs by Western blot analysis; format: functional, cell-based
HCT-116 [2] = experiment: Downregulation of AT13387-induced HSP27 expression in PP5 Knockout human HCT-116 cells at 50 uM incubated for 24 hrs by Western blot analysis; format: functional, cell-based
[3] = target: T1, Low molecular weight phosphotyrosine protein phosphatase (Homo sapiens) (UniProt P24666); experiment: Inhibition of LMPTP-A (unknown origin) using DiFMUP as substrate at 0.01 to 1000 uM; conditions: dose 0.01-1000 µM
T1 sequence (whole entry): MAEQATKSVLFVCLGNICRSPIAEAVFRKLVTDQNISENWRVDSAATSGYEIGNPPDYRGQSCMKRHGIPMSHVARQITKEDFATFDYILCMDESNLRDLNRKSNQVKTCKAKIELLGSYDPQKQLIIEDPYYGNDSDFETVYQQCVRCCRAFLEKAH

[4] = target: T2, Serine/threonine-protein phosphatase 5 (Homo sapiens) (UniProt P53041); experiment: Binding affinity to human PP5 extracted from Escherichia coli BL21 using CDC37 as substrate assessed as increase in dephosphorylation of p-CDC37 at S13 residue incubated for 1 hrs by Western blot analysis; conditions: filed as activator, dose 5-50 µM
T2 sequence (whole entry): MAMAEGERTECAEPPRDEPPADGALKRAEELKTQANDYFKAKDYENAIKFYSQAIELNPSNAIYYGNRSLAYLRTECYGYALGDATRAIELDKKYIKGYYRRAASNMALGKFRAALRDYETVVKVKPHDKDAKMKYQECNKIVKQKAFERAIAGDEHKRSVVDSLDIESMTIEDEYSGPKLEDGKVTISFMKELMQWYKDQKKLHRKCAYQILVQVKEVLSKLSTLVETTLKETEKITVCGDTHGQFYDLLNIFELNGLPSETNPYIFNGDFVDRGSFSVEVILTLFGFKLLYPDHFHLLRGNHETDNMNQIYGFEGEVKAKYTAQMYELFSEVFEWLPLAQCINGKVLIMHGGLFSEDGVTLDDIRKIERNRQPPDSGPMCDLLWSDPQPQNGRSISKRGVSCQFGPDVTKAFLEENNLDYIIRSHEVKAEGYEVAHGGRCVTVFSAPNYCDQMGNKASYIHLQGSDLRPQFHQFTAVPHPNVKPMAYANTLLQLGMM

[5] = target: T3, Hsp90 co-chaperone Cdc37 (Homo sapiens) (UniProt Q16543); experiment: Induction of CDC37 dephosphorylation at S13 residue in PP5-KO human HCT-116 cells upto 100 uM incubated for 24 hrs by Western blot analysis; format: cell-based
T3 sequence (whole entry): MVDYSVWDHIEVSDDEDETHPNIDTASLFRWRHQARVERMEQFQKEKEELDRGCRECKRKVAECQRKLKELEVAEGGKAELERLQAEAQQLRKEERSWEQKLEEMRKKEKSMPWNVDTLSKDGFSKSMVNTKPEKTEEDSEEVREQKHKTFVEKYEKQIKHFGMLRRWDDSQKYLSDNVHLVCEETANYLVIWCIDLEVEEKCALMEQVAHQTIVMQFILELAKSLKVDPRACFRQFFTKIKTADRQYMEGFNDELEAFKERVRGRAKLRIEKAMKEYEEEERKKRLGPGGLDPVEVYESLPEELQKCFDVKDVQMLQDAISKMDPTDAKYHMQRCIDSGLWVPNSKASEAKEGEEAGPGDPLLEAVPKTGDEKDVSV

HCT-116 [6] = experiment: Downregulation of AT13387-induced HSP70 expression in human HCT-116 cells at 50 uM incubated for 24 hrs by Western blot analysis; format: functional, cell-based
HCT-116 [7] = experiment: Downregulation of AT13387-induced HSP70 expression in PP5 Knockout human HCT-116 cells at 50 uM incubated for 24 hrs by Western blot analysis; format: functional, cell-based
HCT-116 [8] = experiment: Antitumor activity against human HCT-116 cells xenografted in BALB/c nude mouse assessed as decrease in AT13387-induced HSP40 protein expression in tumor at 30 to 60 mg/kg, ip administered every other day for 14 days by Western blot analysis; format: functional, organism-based; conditions: dose 30-60 mg/kg, time 14.0 day

- inhibition [3]: inactive
- Activity [4]: Dose-Dependent Effect
- Activity [5]: inactive
SMILES: N=c1oc2cc(F)cc(F)c2cc1C(N)=S
- Activity (HCT-116 [1]): inactive
- Activity (HCT-116 [2]): inactive
- Activity (HCT-116 [6]): Active
- Activity (HCT-116 [7]): inactive
- Activity (HCT-116 [8]): Active
